What was measured:
[1] = target: Hepatocyte growth factor receptor (Homo sapiens, UniProt P08581); test: Inhibition of recombinant c-Met (unknown origin) using poly (Glu,Tyr)4:1 as substrate after 60 mins by ELISA
[2] = Antiproliferative activity against human EBC1 cells after 72 hrs by SRB assay; conditions: EBC-1, 72 h
[3] = Solubility of compound in HBSS/HEPES buffer at pH 7.4 by nephelometric analysis in presence of 0.1% BSA; assay type: physicochemical; conditions: HBSS/HEPES buffer with 0.1% BSA
[4] = tested on: Liver microsome; test: Intrinsic clearance in human liver microsomes at 0.1 uM after 7 to 60 mins by LC-MS/MS analysis; assay type: ADME
[5] = Intrinsic clearance in mouse liver microsomes at 0.1 uM after 7 to 60 mins by LC-MS/MS analysis; assay type: ADME
[6] = Solubility of compound in TRIS buffer by nephelometric analysis in presence of 0.1% BSA; assay type: physicochemical; conditions: TRIS buffer with 0.1% BSA
[7] = tested on: Liver microsome; test: Intrinsic clearance in rat liver microsomes at 0.1 uM after 7 to 60 mins by LC-MS/MS analysis; assay type: ADME
[8] = Apparent permeability from apical to basolateral side in human Caco2 cells after 35 to 95 mins by LC-MS/MS analysis; assay type: ADME, cell-based; conditions: Caco-2
[9] = Apparent permeability from basolateral to apical side in human Caco2 cells after 35 to 95 mins by LC-MS/MS analysis; assay type: ADME, cell-based; conditions: Caco-2
[10] = Solubility of compound in HBSS/HEPES buffer at pH 6.8 by nephelometric analysis in presence of 0.1% BSA; assay type: physicochemical; conditions: HBSS/HEPES buffer with 0.1% BSA
[11] = Antitumor activity against human EBC1 cells xenografted in nude mouse assessed as tumor growth inhibition at 50 mg/kg, po qd administered for 21 days relative to control; assay type: functional; conditions: EBC-1, po, 504 h, read-out: TGI

Chain of Hepatocyte growth factor receptor (P08581 whole entry): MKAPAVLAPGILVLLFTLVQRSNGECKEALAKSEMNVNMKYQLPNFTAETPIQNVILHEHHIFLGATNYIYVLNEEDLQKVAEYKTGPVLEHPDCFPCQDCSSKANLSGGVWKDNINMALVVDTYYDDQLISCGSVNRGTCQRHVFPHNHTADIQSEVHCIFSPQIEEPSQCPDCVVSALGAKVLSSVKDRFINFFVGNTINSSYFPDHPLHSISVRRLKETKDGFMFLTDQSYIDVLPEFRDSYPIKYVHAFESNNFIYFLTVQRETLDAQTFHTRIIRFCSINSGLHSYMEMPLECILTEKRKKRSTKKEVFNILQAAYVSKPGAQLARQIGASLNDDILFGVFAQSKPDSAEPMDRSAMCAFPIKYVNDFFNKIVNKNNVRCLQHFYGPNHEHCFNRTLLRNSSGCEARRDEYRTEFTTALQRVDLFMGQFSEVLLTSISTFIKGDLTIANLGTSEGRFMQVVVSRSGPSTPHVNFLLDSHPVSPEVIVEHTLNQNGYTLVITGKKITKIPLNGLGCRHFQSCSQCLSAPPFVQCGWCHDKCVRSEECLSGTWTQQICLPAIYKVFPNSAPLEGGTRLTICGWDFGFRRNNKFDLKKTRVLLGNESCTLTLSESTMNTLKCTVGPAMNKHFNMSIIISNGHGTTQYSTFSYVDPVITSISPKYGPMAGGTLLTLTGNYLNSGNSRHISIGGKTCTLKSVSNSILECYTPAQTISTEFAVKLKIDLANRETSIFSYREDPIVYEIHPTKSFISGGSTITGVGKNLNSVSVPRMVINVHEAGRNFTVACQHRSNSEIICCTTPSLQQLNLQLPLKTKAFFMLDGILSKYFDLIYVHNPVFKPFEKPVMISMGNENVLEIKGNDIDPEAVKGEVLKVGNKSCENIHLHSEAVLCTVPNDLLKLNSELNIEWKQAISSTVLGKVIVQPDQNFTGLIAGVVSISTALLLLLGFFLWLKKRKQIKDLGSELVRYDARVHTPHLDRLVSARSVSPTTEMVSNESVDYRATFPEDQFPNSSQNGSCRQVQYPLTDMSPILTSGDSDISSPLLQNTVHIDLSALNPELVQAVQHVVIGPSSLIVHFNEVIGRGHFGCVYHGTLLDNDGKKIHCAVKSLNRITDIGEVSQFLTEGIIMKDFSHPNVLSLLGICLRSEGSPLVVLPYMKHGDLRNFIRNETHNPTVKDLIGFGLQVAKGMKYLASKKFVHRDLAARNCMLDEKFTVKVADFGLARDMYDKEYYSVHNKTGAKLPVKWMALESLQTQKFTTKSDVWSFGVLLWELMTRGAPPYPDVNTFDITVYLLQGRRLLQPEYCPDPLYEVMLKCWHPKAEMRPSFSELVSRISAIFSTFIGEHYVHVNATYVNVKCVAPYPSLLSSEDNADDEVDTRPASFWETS

SMILES	IC50 [2] [nM]	further results
Cn1cc(-c2ccc(=O)n(Cc3cccc(Nc4nc5ccccc5[nH]4)c3)n2)cn1	> 200	IC50 [1]: > 100 nM
Cn1cc(-c2ccc(Nc3cccc(Cn4nc(-c5cnn(C)c5)ccc4=O)c3)nc2)cn1	> 200	IC50 [1]: > 100 nM
Cn1cc(-c2ccc(=O)n(Cc3cccc(Nc4ncn(C)n4)c3)n2)cn1	> 200	IC50 [1]: > 100 nM
Cn1cc(-c2ccc(=O)n(Cc3cccc(Nc4ncccn4)c3)n2)cn1	> 200	IC50 [1]: > 100 nM
Cn1cc(-c2cnc(Nc3cccc(Cn4nc(-c5ccc(Cl)c(C(F)(F)F)c5)ccc4=O)c3)nc2)cn1	65	
CNC(=O)c1ccc(-c2ccc(=O)n(Cc3cccc(Nc4ncc(-c5cnn(C)c5)cn4)c3)n2)cc1F	31.3	solubility kinetic [3]: 2 µM; CLH [4]: 28 mL/min/g; CLH [5]: 50 mL/min/g; solubility kinetic [6]: 2 µM; CLH [7]: 64 mL/min/g; Papp A→B [8]: 1.7 ×10⁻⁶ cm/s; Papp B→A [9]: 17.4 ×10⁻⁶ cm/s; solubility kinetic [10]: 2 µM
CN1CCN(Cc2cnc(Nc3cccc(Cn4nc(-c5cnn(C)c5)ccc4=O)c3)nc2)CC1	> 200	IC50 [1]: > 100 nM
Cn1cc(-c2cnc(Nc3cccc(Cn4nc(-c5ccc(S(C)(=O)=O)cc5)ccc4=O)c3)nc2)cn1	73.4	
Cn1cc(-c2ccnc(Nc3cccc(Cn4nc(-c5cnn(C)c5)ccc4=O)c3)n2)cn1	> 200	IC50 [1]: > 100 nM
Cn1cc(-c2cnc(Nc3cccc(Cn4nc(-c5cccc(S(C)(=O)=O)c5)ccc4=O)c3)nc2)cn1	> 200	
Cn1cc(-c2cnc(Nc3cccc(Cn4nc(-c5cnn(CCO)c5)ccc4=O)c3)nc2)cn1	99.8	
Cn1cc(-c2cnc(Nc3cccc(Cn4nc(-c5ccncc5)ccc4=O)c3)nc2)cn1	> 200	
CN(C)C(=O)c1ccc(-c2ccc(=O)n(Cc3cccc(Nc4ncc(-c5cnn(C)c5)cn4)c3)n2)cc1F	102	
Cn1cc(-c2ccc(=O)n(Cc3cccc(Nc4ncc(-c5cccnc5)cn4)c3)n2)cn1	> 200	
Cn1cc(-c2cnc(Nc3cccc(Cn4nc(-c5ccc(C(=O)O)c(F)c5)ccc4=O)c3)nc2)cn1	> 200	
Cn1cc(-c2cnc(Nc3cccc(Cn4nc(-c5cccc(C#N)c5)ccc4=O)c3)nc2)cn1	108	
Cn1cc(-c2cnc(Nc3cccc(Cn4nc(-c5cccc(C(=O)O)c5)ccc4=O)c3)nc2)cn1	> 200	
Cn1cc(-c2ccc(=O)n(Cc3cccc(Nc4ncc(-c5cncs5)cn4)c3)n2)cn1	> 200	
COCCOc1cnc(Nc2cccc(Cn3nc(-c4cnn(C)c4)ccc3=O)c2)nc1	> 200	
CC(C)n1cc(-c2cnc(Nc3cccc(Cn4nc(-c5cnn(C)c5)ccc4=O)c3)nc2)cn1	94.6	
CN1CCC(n2cc(-c3cnc(Nc4cccc(Cn5nc(-c6cnn(C)c6)ccc5=O)c4)nc3)cn2)CC1	65	
Cn1cc(-c2ccc(=O)n(Cc3cccc(Nc4ncc(-c5cnn(CCO)c5)cn4)c3)n2)cn1	48.7	
Cn1cc(-c2cnc(Nc3cccc(Cn4nc(-c5cccnc5)ccc4=O)c3)nc2)cn1	> 200	
C[C@@H](Oc1cc(-c2cnn(C3CCNCC3)c2)cnc1N)c1c(Cl)ccc(F)c1Cl [CRIZOTINIB]	19	inhibition in vivo at 50 mg/kg [11]: 108%

— ChEMBL document CHEMBL3758137 (Eur J Med Chem, 2016)
